{"source": "ChEMBL document CHEMBL5154879", "about": "“Induction of Genes Implicated in Stress Response and Autophagy by a Novel Quinolin-8-yl-nicotinamide QN523 in Pancreatic Cancer” (J Med Chem, 2022)", "key": {"MIA PaCa-2 [1]": {"tested_on": "MIA PaCa-2", "assay": "Antitumor activity against human MIA PaCa-2 cells xenografted in NOD/SCID mouse assessed as tumor growth inhibition at 20 mg/kg, ip administered five times a week starting from day 10 to 44 and measured from day 17 relative to control", "assay_type": "functional", "settings": "MIA PaCa-2, 816 h, time 34 day, read-out: TGI"}, "[2]": {"assay": "Downregulation of CCNF gene expression in human MIA PaCa-2 cells assessed as fold change in CCNF expression at 1 uM incubated for 24 hrs by Bru-seq analysis relative to control", "assay_type": "functional"}, "MIA PaCa-2 [3]": {"tested_on": "MIA PaCa-2", "assay": "Induction of cell cycle arrest in human MIA PaCa-2 cells assessed as accumulation of cells in G2/M phase at 0.1 uM incubated for 24 hrs by RNase/propidium iodide staining based flow cytometry analysis (reference value: 8.11%)", "assay_type": "functional"}, "[4]": {"assay": "Upregulation of SERPINB8 gene expression in human MIA PaCa-2 cells assessed as fold change in SERPINB8 expression at 1 uM incubated for 24 hrs by Bru-seq analysis relative to control", "assay_type": "functional"}, "MIA PaCa-2 [5]": {"tested_on": "MIA PaCa-2", "assay": "Induction of apoptosis in human MIA PaCa-2 cells assessed as necrotic cells at 0.5 uM incubated for 48 hrs by Annexin V-FITC/PI staining based flow cytometry analysis (reference value: 1.07%)", "assay_type": "functional"}, "MIA PaCa-2 [6]": {"tested_on": "MIA PaCa-2", "assay": "Antitumor activity against human MIA PaCa-2 cells xenografted in NOD/SCID mouse assessed as tumor growth delay at 30 mg/kg, ip administered five times a week starting from day 44 to 51 post first dose", "assay_type": "functional, organism-based", "settings": "time 51.0 day"}, "[7]": {"assay": "Downregulation of FASN gene expression in human MIA PaCa-2 cells assessed as fold change in FASN expression at 1 uM incubated for 24 hrs by Bru-seq analysis relative to control", "assay_type": "functional"}, "MIA PaCa-2 [8]": {"tested_on": "MIA PaCa-2", "assay": "Induction of apoptosis in human MIA PaCa-2 cells assessed as live cells at 0.1 uM incubated for 48 hrs by Annexin V-FITC/PI staining based flow cytometry analysis (reference value: 96.3%)", "assay_type": "functional"}, "MIA PaCa-2 [9]": {"tested_on": "MIA PaCa-2", "assay": "Induction of cell cycle arrest in human MIA PaCa-2 cells assessed as accumulation of cells in G0/G1 phase at 0.1 uM incubated for 48 hrs by RNase/propidium iodide staining based flow cytometry analysis (reference value: 70.4%)", "assay_type": "functional"}, "SNU-387": {"tested_on": "SNU-387", "assay": "Antiproliferative activity against human SNU-387 cells assessed as inhibition of cell growth incubated for 72 hrs by MTT assay", "assay_type": "functional, cell-based", "settings": "SNU-387, 72 h"}, "[10]": {"assay": "Downregulation of NEURLIB gene expression in human MIA PaCa-2 cells assessed as fold change in NEURLIB expression at 1 uM incubated for 24 hrs by Bru-seq analysis relative to control", "assay_type": "functional"}, "MIA PaCa-2 [11]": {"tested_on": "MIA PaCa-2", "assay": "Induction of apoptosis in human MIA PaCa-2 cells assessed as late apoptotic cells at 0.1 uM incubated for 48 hrs by Annexin V-FITC/PI staining based flow cytometry analysis (reference value: 0.8%)", "assay_type": "functional"}, "[12]": {"assay": "Upregulation of HMOX1 gene expression in human MIA PaCa-2 cells assessed as fold change in HMOX1 expression at 1 uM incubated for 24 hrs by Bru-seq analysis relative to control", "assay_type": "functional"}, "MIA PaCa-2 [13]": {"tested_on": "MIA PaCa-2", "assay": "Induction of autophagy in human MIA PaCa-2 cells assessed as accumulation of GABARAPL1 marker gene expression at upto 2 uM incubated for 72 hrs by Western blot analysis", "assay_type": "functional, cell-based"}, "[14]": {"assay": "Downregulation of TACC3 gene expression in human MIA PaCa-2 cells assessed as fold change in TACC3 expression at 1 uM incubated for 24 hrs by Bru-seq analysis relative to control", "assay_type": "functional"}, "MIA PaCa-2 [15]": {"tested_on": "MIA PaCa-2", "assay": "Upregulation of P53 pathway in human MIA PaCa-2 cells by gene set enrichment analysis", "assay_type": "functional, cell-based"}, "[16]": {"assay": "Toxicity in NOD/SCID mouse xenografted with human MIA PaCa- 2 cells assessed as morphological changes in kidney at 10 to 20 mg/kg, ip administered five times a week for 44 days by H and E staining based inverted microscopic analysis", "assay_type": "organism-based", "settings": "in vivo, 1056 h, dose 10-20 mg/kg, time 44 day"}, "MIA PaCa-2 [17]": {"tested_on": "MIA PaCa-2", "assay": "Upregulation of CHOP gene expression in human MIA PaCa-2 cells incubated for 72 hrs by Western blot analysis", "assay_type": "functional, cell-based", "settings": "dose <= 600.0 µM, DDE = dose-dependent effect"}, "[18]": {"assay": "Toxicity in NOD/SCID mouse xenografted with human MIA PaCa-2 cells assessed as change in body weight at 30 mg/kg, ip administered five times a week starting from day 44 to 51 post first dose", "assay_type": "organism-based", "settings": "in vivo, 1224 h, time 51 day"}, "MIA PaCa-2 [19]": {"tested_on": "MIA PaCa-2", "assay": "Induction of cell cycle arrest in human MIA PaCa-2 cells assessed as accumulation of cells at S phase at 0.1 uM incubated for 48 hrs by RNase/propidium iodide staining based flow cytometry analysis (Rvb =26.9 %)", "assay_type": "functional"}, "[20]": {"assay": "Downregulation of STK1I gene expression in human MIA PaCa-2 cells assessed as fold change in STK1I expression at 1 uM incubated for 24 hrs by Bru-seq analysis relative to control", "assay_type": "functional"}, "[21]": {"assay": "Cytotoxicity against human HPDE cells assessed as inhibition of cell growth incubated for 72 hrs by MTT assay", "assay_type": "toxicity, cell-based"}, "MIA PaCa-2 [22]": {"tested_on": "MIA PaCa-2", "assay": "Induction of cell cycle arrest in human MIA PaCa-2 cells assessed as accumulation of cells at S phase at 0.5 uM incubated for 24 hrs by RNase/propidium iodide staining based flow cytometry analysis (Rvb =27.6 %)", "assay_type": "functional"}, "[23]": {"assay": "Downregulation of LAMA5 gene expression in human MIA PaCa-2 cells assessed as fold change in LAMA5 expression at 1 uM incubated for 24 hrs by Bru-seq analysis relative to control", "assay_type": "functional"}, "[24]": {"assay": "Downregulation of ANKDDIA gene expression in human MIA PaCa-2 cells assessed as fold change in ANKDDIA expression at 1 uM incubated for 24 hrs by Bru-seq analysis relative to control", "assay_type": "functional"}, "[25]": {"assay": "Downregulation of INCENP gene expression in human MIA PaCa-2 cells assessed as fold change in INCENP expression at 1 uM incubated for 24 hrs by Bru-seq analysis relative to control", "assay_type": "functional"}, "BXPC-3": {"tested_on": "BXPC-3", "assay": "Inhibition of colony formation in human BXPC-3 cells at 1 uM incubated for 10 to 14 days by crystal violet staining based assay", "assay_type": "functional, cell-based", "settings": "time 10-14 day"}, "[26]": {"assay": "Downregulation of SEMA6B gene expression in human MIA PaCa-2 cells assessed as fold change in SEMA6B expression at 1 uM incubated for 24 hrs by Bru-seq analysis relative to control", "assay_type": "functional"}, "[27]": {"assay": "Toxicity in NOD/SCID mouse xenografted with human MIA PaCa- 2 cells assessed as morphological changes in spleen at 10 to 20 mg/kg, ip administered five times a week for 44 days by H and E staining based inverted microscopic analysis", "assay_type": "organism-based", "settings": "in vivo, 1056 h, dose 10-20 mg/kg, time 44 day"}, "[28]": {"assay": "Downregulation of TRAF7 gene expression in human MIA PaCa-2 cells assessed as fold change in TRAF7 expression at 1 uM incubated for 24 hrs by Bru-seq analysis relative to control", "assay_type": "functional"}, "[29]": {"assay": "Upregulation of FAM129A gene expression in human MIA PaCa-2 cells assessed as fold change in FAM129A expression at 1 uM incubated for 24 hrs by Bru-seq analysis relative to control", "assay_type": "functional"}, "MIA PaCa-2 [30]": {"tested_on": "MIA PaCa-2", "assay": "Downregulation of E2F target gene expression in human MIA PaCa-2 cells by gene set enrichment analysis", "assay_type": "functional, cell-based"}}, "note": "Activity calls are given as the source filed them. No cut-off for these calls is given here.", "data": [{"smiles": "O=C(Nc1cccc2cccnc12)c1cnccn1", "values": [{"measurement": "inhibition in vivo at 20 mg/kg", "setting": "MIA PaCa-2 [1]", "value": 80, "unit": "%"}, {"measurement": "fold change (FC)", "setting": "[2]", "value": 0.36}, {"measurement": "Activity", "setting": "MIA PaCa-2 [3]", "value": 14.9, "unit": "%"}, {"measurement": "fold change (FC)", "setting": "[4]", "value": 5.3}, {"measurement": "Activity", "setting": "MIA PaCa-2 [5]", "value": 1.2, "unit": "%"}, {"measurement": "Activity", "setting": "MIA PaCa-2 [6]", "value": "Active"}, {"measurement": "fold change (FC)", "setting": "[7]", "value": 0.41}, {"measurement": "Activity", "setting": "MIA PaCa-2 [8]", "value": 92, "unit": "%"}, {"measurement": "Activity", "setting": "MIA PaCa-2 [9]", "value": 62.4, "unit": "%"}, {"measurement": "IC50", "setting": "SNU-387", "value": 5.73, "unit": "µM"}, {"measurement": "fold change (FC)", "setting": "[10]", "value": 0.44}, {"measurement": "Activity", "setting": "MIA PaCa-2 [11]", "value": 1.5, "unit": "%"}, {"measurement": "fold change (FC)", "setting": "[12]", "value": 13}, {"measurement": "Activity", "setting": "MIA PaCa-2 [13]", "value": "Active"}, {"measurement": "fold change (FC)", "setting": "[14]", "value": 0.45}, {"measurement": "Activity", "setting": "MIA PaCa-2 [15]", "value": "Active"}, {"measurement": "Activity", "setting": "[16]", "value": "Non-Toxic"}, {"measurement": "Activity", "setting": "MIA PaCa-2 [17]", "value": "Dde"}, {"measurement": "Activity", "setting": "[18]", "value": "Non-Toxic"}, {"measurement": "Activity", "setting": "MIA PaCa-2 [19]", "value": 29.4, "unit": "%"}, {"measurement": "fold change (FC)", "setting": "[20]", "value": 0.4}, {"measurement": "IC50 at 72 h", "setting": "[21]", "value": 0.55, "unit": "µM"}, {"measurement": "Activity", "setting": "MIA PaCa-2 [22]", "value": 45.1, "unit": "%"}, {"measurement": "fold change (FC)", "setting": "[23]", "value": 0.42}, {"measurement": "fold change (FC)", "setting": "[24]", "value": 0.45}, {"measurement": "fold change (FC)", "setting": "[25]", "value": 0.46}, {"measurement": "inhibition", "setting": "BXPC-3", "value": "Active"}, {"measurement": "fold change (FC)", "setting": "[26]", "value": 0.43}, {"measurement": "Activity", "setting": "[27]", "value": "Non-Toxic"}, {"measurement": "fold change (FC)", "setting": "[28]", "value": 0.39}, {"measurement": "fold change (FC)", "setting": "[29]", "value": 16.8}, {"measurement": "Activity", "setting": "MIA PaCa-2 [30]", "value": "Active"}]}]}
